6 compounds from US6900336B2, “8-aza-11-deoxy prostaglandin analogues” (Syntex (U.S.A.) LLC, priority 2001, dated 2005) can be followed below.

For one test, the target named is T1, rEP1 Receptor (UniProt P70597).
T1 sequence (P70597 1-405): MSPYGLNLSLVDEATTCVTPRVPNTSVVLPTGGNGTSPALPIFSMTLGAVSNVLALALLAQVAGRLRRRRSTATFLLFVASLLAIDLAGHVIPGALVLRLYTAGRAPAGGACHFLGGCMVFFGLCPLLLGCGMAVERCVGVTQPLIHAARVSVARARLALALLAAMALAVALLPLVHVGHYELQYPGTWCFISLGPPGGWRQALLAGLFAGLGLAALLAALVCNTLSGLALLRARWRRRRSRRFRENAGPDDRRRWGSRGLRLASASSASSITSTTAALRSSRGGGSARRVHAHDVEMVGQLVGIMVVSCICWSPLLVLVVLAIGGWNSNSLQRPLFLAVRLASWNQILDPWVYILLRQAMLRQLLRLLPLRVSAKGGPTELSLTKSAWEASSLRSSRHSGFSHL
Briefly: Competitive Binding Assay of [3H]PGE2 to rEP1 Receptor. The settings on record: 3 nM [3H]PGE2, membrane fraction, 1 hr at 30° C.; read-out: EP1, Ki. Here is the method: (§1) Competitive Binding Assay of [^3H]PGE2 to rEP1 or rEP3 Receptor
(§2) The cells were maintained in culture then harvested upon confluency. The membrane was prepared by two times of centrifugation (12,000× g for 15 min) following lysis of cells by polytron homogenization of 15 sec. in 10 volume of 20 mM Hepes pH 7.4 containing 1 mM EDTA, 10 mM MgCl2, 20 uM indomethacin at 4° C. […] Incubations were conducted for 1 hr at 30° C. prior to separation of the bound and free radioligand by rapid filtration. Residual [^3H]PGE2 bound to the filter was quantitated by liquid scintillation counting. The Ki of a compound was calculated by the program of one site binding calculation of Prism.

For the next test, the target named is T2, rEP3 Receptor (UniProt P34980).
T2 sequence (P34980 1-365): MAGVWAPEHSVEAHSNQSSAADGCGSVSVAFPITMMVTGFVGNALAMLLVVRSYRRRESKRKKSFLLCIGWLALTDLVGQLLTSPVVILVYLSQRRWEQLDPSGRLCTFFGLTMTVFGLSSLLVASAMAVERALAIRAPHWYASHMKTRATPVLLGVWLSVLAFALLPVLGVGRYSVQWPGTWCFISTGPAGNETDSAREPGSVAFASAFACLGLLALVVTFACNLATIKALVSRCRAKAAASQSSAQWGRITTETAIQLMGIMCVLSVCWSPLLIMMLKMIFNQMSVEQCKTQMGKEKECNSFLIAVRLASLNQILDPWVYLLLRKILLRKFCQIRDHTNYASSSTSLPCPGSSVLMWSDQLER
In words: Competitive Binding Assay of [3H]PGE2 to rEP3 Receptor. The conditions noted are these: 3 nM [3H]PGE2, membrane fraction, 1 hr at 30° C.; read-out: EP3, Ki. On the procedure:
as §1
The cells were maintained in culture then harvested upon confluency. […] Incubations were conducted for 1 hr at 30° C. prior to separation of the bound and free radioligand by rapid filtration. Residual [^3H]PGE2 bound to the filter was quantitated by liquid scintillation counting. The Ki of a compound was calculated by the program of one site binding calculation of Prism.

Another test concerns the target T3, EP2 Receptor (Homo sapiens, UniProt P43116).
T3 construct: host or cells: unnamed cultured cells, membrane fraction
Briefly: EP2 Ki (table under competitive [3H]PGE2 binding assay).

A further test has as its target T4, EP4 Receptor (Homo sapiens, UniProt P35408).
T4 construct: host or cells: unnamed cultured cells, membrane fraction
Briefly: EP4 Ki (table under competitive [3H]PGE2 binding assay). Here is the method: [Worded in the source for another target; this target is reported under the same test.] as §1, §2

The structures appear in SMILES notation.

T4 sequence (P35408 whole entry): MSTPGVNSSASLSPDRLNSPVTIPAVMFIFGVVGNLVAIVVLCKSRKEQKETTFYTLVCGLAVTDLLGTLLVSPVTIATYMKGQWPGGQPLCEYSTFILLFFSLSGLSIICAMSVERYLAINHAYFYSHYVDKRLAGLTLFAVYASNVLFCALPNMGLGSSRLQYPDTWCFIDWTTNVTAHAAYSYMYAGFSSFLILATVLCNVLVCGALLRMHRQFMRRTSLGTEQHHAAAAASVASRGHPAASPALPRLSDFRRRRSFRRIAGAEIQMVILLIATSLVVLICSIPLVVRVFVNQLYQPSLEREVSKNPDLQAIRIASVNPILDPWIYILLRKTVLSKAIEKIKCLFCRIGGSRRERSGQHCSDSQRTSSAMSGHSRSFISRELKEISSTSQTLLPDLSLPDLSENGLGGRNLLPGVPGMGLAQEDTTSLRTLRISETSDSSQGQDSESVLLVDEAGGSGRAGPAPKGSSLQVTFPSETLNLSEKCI
T3 sequence (P43116 whole entry): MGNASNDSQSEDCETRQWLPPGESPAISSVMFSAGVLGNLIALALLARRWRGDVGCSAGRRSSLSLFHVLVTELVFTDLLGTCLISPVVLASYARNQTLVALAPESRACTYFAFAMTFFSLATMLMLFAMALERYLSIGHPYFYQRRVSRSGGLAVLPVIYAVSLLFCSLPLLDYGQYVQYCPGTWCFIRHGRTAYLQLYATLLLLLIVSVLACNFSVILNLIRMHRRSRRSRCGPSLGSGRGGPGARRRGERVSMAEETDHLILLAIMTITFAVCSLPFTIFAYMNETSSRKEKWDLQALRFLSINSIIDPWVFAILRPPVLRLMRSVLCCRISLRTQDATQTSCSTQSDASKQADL

Turning to `CC1(C)C[C@H](/C=C/C(O)c2ccc(C(F)(F)F)o2)N(CCCCCCC(=O)O)C1=O` (stereo partly drawn) [Compound 55, 7-{(R)-5-[(E)-3-hydroxy-3-(5-trifluoromethyl-furan-2-yl)-propenyl]-3,3-dimethyl-2-oxo-pyrrolidin-1-yl}-heptanoic acid], the Ki (in general, the equilibrium dissociation constant of an inhibitor or competing ligand from its target) at rEP1 Receptor was more than 100 µM; at rEP3 Receptor, more than 100 µM; on EP2 Receptor, more than 100 µM; at EP4 Receptor, 7 nM.

In the case of `O=C(O)CCCCCCN1C(=O)CC[C@@H]1/C=C/C(O)c1cccc(Oc2ccc(Cl)cc2)c1` (stereo partly drawn) [Compound 74, 7-((R)-2-{(E)-3-[3-(4-chloro-phenoxy)-phenyl]-3-hydroxy-propenyl}-5-oxo-pyrrolidin-1-yl)-heptanoic acid], the results for the Ki on rEP3 Receptor, on EP2 Receptor and on EP4 Receptor were 47 µM, 22.9 µM and 10 nM, respectively.

Consider `CCCCC[C@H](O)/C=C/[C@H]1CCC(=O)N1CCc1ccc(C(=O)O)cc1` [Compound 76, 4-{2-[(R)-2-((E)-3-Hydroxy-oct-1-enyl)-5-oxo-pyrrolidin-1-yl]-ethyl}-benzoic Acid], for which the inhibitory constant (Ki) at rEP3 Receptor was 11 µM; at EP2 Receptor, 0.13 µM; at EP4 Receptor, 1.2 nM.

With `COCc1cccc(CC(O)/C=C/[C@H]2CC(C)(C)C(=O)N2CCCCCCC(=O)O)c1` (stereo partly drawn) [Compound 59, 7-{(R)-5-[(E)-3-Hydroxy-4-(3-methoxymethyl-phenyl)-but-1-enyl]-3,3-dimethyl-2-oxo-pyrrolidin-1-yl}-heptanoic acid], the Ki on rEP3 Receptor was more than 100 µM; on EP2 Receptor, more than 100 µM; at EP4 Receptor, 70 nM.

On to `Cc1cc(Cl)ccc1-c1cccc([C@H](O)CC[C@H]2CCC(=O)N2CCc2ccc(C(=O)O)cc2)c1` [Compound 81, 4-(2-{(S)-2-[(R)-3-(4′-Chloro-2′-methyl-biphenyl-3-yl)-3-hydroxy-propyl]-5-oxo-pyrrolidin-1-yl}-ethyl)-benzoic acid], for which the results for the inhibitory constant (Ki) at rEP3 Receptor, at EP2 Receptor and at EP4 Receptor were 54 µM, 5.1 µM and 0.94 nM, respectively.

On to `CCCCCC(O)/C=C/[C@H]1CCC(=O)N1CCc1ccc(C(=O)O)s1` (stereo partly shown) [Compound 82], for which the values for the Ki at rEP3 Receptor, at EP2 Receptor and on EP4 Receptor were more than 100 µM, 3.7 µM and 69 nM, respectively.
